The values below come from article PMC12217481, “Structure and mechanism of taniborbactam inhibition of the cefepime-hydrolyzing, partial R2-loop deletion Pseudomonas-derived cephalosporinase variant PDC-88” (Antimicrobial Agents and Chemotherapy, 2025).

For assay [1], the system named is isogenic E. coli strains expressing PDC R2-loop deletion variants (PDC-88 to PDC-92). The assay is described as follows: MIC changes across the five isogenic E. coli R2-loop deletion strains. To be noted: R2-loop deletion variant strains; for restoration of FEP activity / susceptibility by inhibitor: inhibitor at constant 4 µg/mL. It is filed as cell-based, Escherichia coli. As for the experimental part: Modal broth microdilution MICs (or median broth microdilution MICs where appropriate) were determined in accordance with Clinical and Laboratory Standards Institute (CLSI) M07 guidelines ([43]). Isogenic E. coli DH10B cells expressing the abovementioned plasmid-encoded PDC constructs were used. […] CLSI quality control strains Escherichia coli NCTC 13353, E. coli ATCC 35218, and Klebsiella pneumoniae ATCC 700603 were used during testing ([24]).

Assay [2] deals with T1, PDC-88 (Pseudomonas aeruginosa, UniProt P24735, DEL316-317/G27D/G391A/T105A/V205L/V356I).
T1 construct: NdeI 5′-[…]-3ʹ and BamHI 5ʹ-[…]-3ʹ; His tag removed) (N); made in house; host or cells: E. coli BL21-CodonPlus (DE3)-RP, pET24a(+)
The class given is binding. As for the experimental part: Circular dichroism (CD) melting curve experiments were conducted using a J-815 spectropolarimeter (Jasco) and a Peltier effect temperature controller. Suprasil quartz cuvettes with a 0.1 cm path length (Hellma Analytics) were used in all experiments. […] Equilibrium constants were calculated, and the melting temperature, Tm, was calculated from equilibrium denaturation data as previously described ([28]).

Assay [3] deals with T2, PDC-3 (Pseudomonas aeruginosa, UniProt P24735, T105A).
T2 construct: The PDC-3 expression construct was created in a similar manner but starting with a previously described pBC SK(−) vector; made in house; host or cells: E. coli BL21-CodonPlus (DE3)-RP, pET24a(+)
Kind of assay: Thermal denaturation by circular dichroism, PDC-3. It is filed as binding. As for the experimental part: Competitive enzyme inhibitors can increase enzyme thermal stability as a result of binding to the active site.
Circular dichroism (CD) melting curve experiments were conducted using a J-815 spectropolarimeter (Jasco) and a Peltier effect temperature controller. Suprasil quartz cuvettes with a 0.1 cm path length (Hellma Analytics) were used in all experiments. […] Two-state behavior was observed, as indicated by identical curves at each wavelength. Equilibrium constants were calculated, and the melting temperature, Tm, was calculated from equilibrium denaturation data as previously described ([28]).

The test system of the next assay is NDM-1. Also noted: method as in PMID 22005056. The settings on record: cited from earlier work.
Assay [4] has as its target T2, PDC-3. Kind of assay: Timed ESI-MS of acyl-enzyme formation, PDC-3. The class given is biochemical. As for the experimental part: (§1) Timed ESI-MS experiments allow tracking of the reaction over time and determination of product modification, enabling the elucidation of mechanistic detail. Time courses were collected for both PDC-3 and PDC-88 with FEP (Fig. 4), CAZ (Fig. S1), TOL (Fig. S2), and ATM (Fig. S3). Substrate modification (here, loss of the R2 group) was determined based on differences between masses of apo and acyl-enzyme peaks (Fig. S4). […] Based on the differences in mass between the apo enzyme peaks, the acyl-enzyme peaks, and the molecular masses of each substrate, the mass of the adducts was determined and used to predict any portion of the substrate molecule that might be lost during the reaction (Fig. S4). As expected ([26][–][28]), all three cephalosporin antibiotics (FEP, CAZ, and TOL) lost their R2 groups during the reaction, while ATM (the sole monobactam) maintained its initial mass.
(§2) Five micrograms of PDC-3 or PDC-88 was incubated at the indicated molar ratio (1:2 to 1:100 PDC:β-lactam) in a total volume of 20 µL in 1× PBS at pH 7.4 at room temperature for the duration of the indicated time points. Reactions were quenched with the addition of 10 µL acetonitrile and added to 1 mL of 0.1% formic acid in water.
(§3) Data were collected using a Waters Synapt G2-Si quadrupole time-of-flight (Q-TOF) mass spectrometer and Waters Acquity UPLC BEH C18 1.7 µm column (2.1 by 100 mm). MassLynx V4.1 was used to deconvolute protein peaks. The tune settings for each sample were as follows: capillary voltage of 3.5 kV, sampling cone voltage of 35 V, source offset of 35 V, source temperature of 100°C, desolvation temperature of 500°C, cone gas flow rate of 100 L/h, desolvation gas flow rate of 800 L/h, and nebulizer bar at 6.0. Mobile phase A was 0.1% formic acid in water. Mobile phase B was 0.1% formic acid in acetonitrile. The mass accuracy of this system is ±5 Da.

Assay [5] has as its target T1, PDC-88. Kind of assay: Timed ESI-MS of acyl-enzyme formation, PDC-88. The class given is biochemical. As to the method: as §1, §2, §3
Setting [6] is: 60 min incubation, starting molar ratio 1:2.
The mark [7] stands for this setting: timed ESI-MS, 1 to 30 min (ATM to 60 min).

Each structure is given as a SMILES string.

As to `NC(=O)[C@@H]1CC[C@@H]2CN1C(=O)N2OS(=O)(=O)O` [AVI, avibactam], the “restoration of FEP activity / susceptibility by inhibitor” value in assay [1] is given as “restoring FEP activity in all cases”.
Turning to `C[C@]1(Cn2ccnn2)[C@H](C(=O)O)N2C(=O)C[C@H]2S1(=O)=O` [TZB, tazobactam], the “decrease of FEP MIC of variants by inhibitor” value in assay [1] (inhibitor at constant 4 µg/mL with FEP) is given as “two- to fourfold”. Also, the “restoration of FEP activity / susceptibility by inhibitor” value in assay [1] is listed as “failed to restore susceptibility for any of the variants”. Also, the “increase of Tm upon addition of inhibitor” value at PDC-88 [2] (PDC-88) and on PDC-3 [3] (PDC-3) was 1 °C in each case. Besides, the Tm at PDC-88 [2] (PDC-88 with inhibitor, circular dichroism, PDC-88 alone 53°C) came to 54 °C; at PDC-3 [3] (PDC-3 with inhibitor, circular dichroism, PDC-3 alone 52°C), 53 °C.
Consider `C[C@H]1[C@H](NC(=O)/C(=N\OC(C)(C)C(=O)O)c2csc(N)n2)C(=O)N1S(=O)(=O)O` [ATM, aztreonam], for which the “hydrolysis by NDM-1” value with NDM-1 was “does not hydrolyze”. The “apo enzyme after incubation” value on PDC-3 [4] (setting [6]) was “less than 10%”; on PDC-88 [5] (setting [6]), “no apo enzyme present”. For the same molecule, the “acyl-enzyme complex formation and deacylation” value at PDC-3 [4] (setting [7]) and on PDC-88 [5] (setting [7]) was “quickly formed acyl-enzyme complexes” throughout.
